Laboratory results as given in patent publication US11680062B2, “3,4-methylenedioxyphenylimidazolylethanonexime ether derivative, preparation method and use thereof, and drug for the treatment of Alzheimer's disease” (NORTHWEST A&F UNIVERSITY, priority 2021, dated 2023).
Like-named read-outs stand apart in the source and are kept apart here.

Tests used:
[1] = tested on: NO production in lipopolysaccharide-induced BV-2 microglia; test: Inhibition of NO production in lipopolysaccharide-induced BV-2 microglia; assay type: cell-based; settings: Mus musculus
BV-2 microglia [2] = settings: mouse
BV-2 microglia [3] = test: Cell viability corresponding to the NO production test
5×FAD transgenic mice [4] = test: Marble burying test (anxiety behavior); assay type: in vivo; settings: 5×FAD mice, high dose 30 mg/kg/day intraperitoneal, 4 weeks
Description: (§1) The AD model mice used are 5×FAD transgenic mice, purchased from the Jackson Laboratory (JAX), USA. The transgenic mice have Swedish (K670N/M671L), Florida (I716V) and London (V717I) mutations in amyloid precursor protein (APP), and M146L and L286V mutations in PSEN1.
(§2) All mice were fed and watered ad libitum at 22±2° C. with a humidity of 50±10% and a 12 h light/dark cycle until 6 months old, then the experiment was started. All operations were in accordance with the guidelines of the National Health Administration and the guidelines for the use of laboratory animals. […]
Each mouse was placed in a cage (28×18×12 cm) containing 20 clean marbles (1.5 cm in diameter), evenly distributed on the surface of clean wood chips (4 cm in depth). After 30 min, each mouse was removed from the cage and the number of marbles buried at least two-thirds was counted.

5×FAD transgenic mice [5] = test: Elevated plus maze test (anxiety behavior); assay type: in vivo; settings: 5×FAD mice, 4 weeks
Description: as §1, §2
The elevated plus maze is a recognized behavior test used for anxiety behavior assessment. […] The times of entries onto the open arm and the total times were recorded, and the anxiety behavior of the animal was evaluated by the proportion of entries onto the open arm.

5×FAD transgenic mice [6] = test: Barnes maze test (learning and memory ability); assay type: in vivo; settings: 5×FAD mice, 4 weeks
Description: as §1, §2
The Barnes maze test is widely used to assess spatial learning and memory abilities. […] When the cylinder was removed, light was given to allow the mice to explore the platform and find the escape box within 180 s, the time when the mice entered the escape box was recorded by a camera-based EthoVision system (Noldus) and recorded as the escape latency. […] The successful escape latency of mice was recorded and analyzed.

5×FAD transgenic mice [7] = test: Y maze test (working memory ability); assay type: in vivo; settings: 5×FAD mice, 4 weeks
Description: as §1, §2
The Y maze test is a commonly used test method to assess working memory ability. […] The mice were placed in the center of the Y maze to explore the 3 arms freely for 5 min, all movements were recorded by a camera, and the spontaneous alternation ratio was calculated according to the situation of entering onto each arm.

[8] = read-out: EC50 (inhibition of NO production)
[9] = read-out: EC50 (inhibitory effect on the NO production)
[10] = high dose 30 mg/kg/day intraperitoneal
[11] = low dose 15 mg/kg/day intraperitoneal

Structure (SMILES) | EC50 [1, 9] [µM] | melting point [°C] | cell viability (BV-2 microglia [2]) [%] | other results
C(=C\c1ccccc1)/CO/N=C(\Cn1ccnc1)c1ccc2c(c1)OCO2 [I-10] | > 20 | – | 96.3 | EC50 [1, 8]: > 20 µM
c1ccc(CO/N=C(\Cn2ccnc2)c2ccc3c(c2)OCO3)cc1 [I-6] | 4.43 ± 0.43 | 186.4 to 187.9 | 97.8 | –
Clc1ccc(CO/N=C(\Cn2ccnc2)c2ccc(Cl)cc2Cl)c(Cl)c1 [oxiconazole] | – | – | – | cell viability (BV-2 microglia [3]): 96.2%
C=CCO/N=C(\Cn1ccnc1)c1ccc2c(c1)OCO2 [I-3] | 3.42 ± 0.64 | – | 97.8 | –
N#Cc1ccc(CO/N=C(\Cn2ccnc2)c2ccc3c(c2)OCO3)cc1 [I-9] | 4.24 ± 1.02 | – | 91.6 | –
O=c1c(O)c(-c2ccc(O)c(O)c2)oc2cc(O)cc(O)c12 [quercetin, reference compound] | 9.56 ± 1.62 | – | – | EC50 [1, 8]: 9.56 µM; cell viability (BV-2 microglia [3]): 94.3%

The next lines start with results.

EC50 [1, 9] [µM] | melting point [°C] | Structure (SMILES) | cell viability (BV-2 microglia [2]) [%] | other results
2.53 ± 0.47 | 156.3 to 157.5 | FC(F)(F)c1ccccc1CO/N=C(\Cn1ccnc1)c1ccc2c(c1)OCO2 [I-8] | 95.4 | –
2.07 ± 0.56 | – | C#CCO/N=C(\Cn1ccnc1)c1ccc2c(c1)OCO2 [I-1] | 92.5 | number of marbles buried (5×FAD transgenic mice [4]): significantly reduced; proportion of entries onto the open arm (5×FAD transgenic mice [5]; [10]): significantly improved; proportion of entries onto the open arm (5×FAD transgenic mice [5]; [11]): significantly improved; successful escape latency vs 5×FAD-Vehicle group (5×FAD transgenic mice [6]; high dose 30 mg/kg/day intraperitoneal, day 3 and day 4): significantly reduced; successful escape latency vs 5×FAD-Vehicle group (5×FAD transgenic mice [6]; low dose 15 mg/kg/day intraperitoneal, day 4): significantly reduced; spontaneous alternation ratio (5×FAD transgenic mice [7]; [10]): significantly increased; spontaneous alternation ratio (5×FAD transgenic mice [7]; [11]): significantly increased
2.76 ± 0.34 | 154.3 to 154.9 | CC(C)=CCO/N=C(\Cn1ccnc1)c1ccc2c(c1)OCO2 [I-5] | 93.3 | –
2.37 ± 0.17 | 121.8 to 122.7 | FC(F)(F)c1ccc(CO/N=C(\Cn2ccnc2)c2ccc3c(c2)OCO3)cc1 [I-7] | 92.8 | –
